Data: paper PMC7031696 (Cell chemical biology, 2019)
Entries after “also recorded” stand apart in the source; their conditions may differ. Where two headings read alike, the source gives them in different places.

What was measured:
[1] = test system: Plasmodium falciparum 3D7-A10 parasites; test: Stage specificity assay (8-h exposure of synchronized stages, IC50^8h); assay type: cell-based; conditions: for Ratio lowest IC50 8hr/IC50 72hr: 3D7-A10; for Stage of peak activity (Figure 6): period when the parasite was most susceptible (lowest IC50^8h)
[2] = test system: asynchronous 3D7-A10 parasite cultures; test: Standard 72-h exposure asexual blood stage susceptibility assay (IC50^72h); assay type: cell-based, Plasmodium falciparum; conditions: read-out: Overall (72hr assay) Mean IC50 (IC50^72h); 72-h exposure, asynchronous 3D7-A10
[3] = read-out: Early trophozoites Mean IC50 (IC50^8h), 8-h exposure 16–24 hr, 3D7-A10, survival at 60 h
[4] = read-out: Late trophozoites Mean IC50 (IC50^8h), 8-h exposure 24–32 hr, 3D7-A10, survival at 60 h
[5] = read-out: Schizonts Mean IC50 (IC50^8h), 8-h exposure 32–40 hr, 3D7-A10, survival at 60 h
[6] = read-out: Early rings Mean IC50 (IC50^8h), 8-h exposure 0–8 hr, 3D7-A10, survival at 60 h
[7] = read-out: Late rings Mean IC50 (IC50^8h), 8-h exposure 8–16 hr, 3D7-A10, survival at 60 h

Compound	Ratio lowest IC50 8hr/IC50 72hr [1]	killing in stage specificity assay ([1]; 8-h exposures, survival curves)	Stage of peak activity (Figure 6) [1]	IC50 ([1]; read-out: Early rings IC50 (IC50^8h), 8-h exposure 0–8 hr, bound given in μM) [µM]	IC50 [1, 3] [µM]	IC50 ([1]; read-out: Late rings IC50 (IC50^8h), 8-h exposure 8–16 hr, bound given in μM) [µM]	IC50 [1, 4] [µM]	IC50 [1, 5] [µM]	Peak Activity (Table S1) ([1]; stage(s) with the lowest IC50^8h)	IC50 [2] [µM]	overall activity profile (stages on which active) ([1]; 8-h exposures)	IC50 [1, 6] [µM]	IC50 [1, 7] [µM]
CC(C)(C)c1ccc2c(c1)CN(Cc1ccc(Cl)cc1)CO2 [MMV000442]	4.7	incomplete killing at all asexual blood stages	trophozoites	> 8	0.176	> 8	0.197	0.503	Trophs	0.0372	–	–	–
CN(C)Cc1ccc(-c2cc3c(-c4ccc(CN(C)C)cc4)ccnc3[nH]2)cc1.O=C(O)C(F)(F)F [MMV022224]	2.7	–	rings and trophozoites	–	0.542	–	0.752	2.49	–	0.199	activity exclusively in rings and trophozoites but not in schizonts	0.838	0.845
CC(C)(C)NCc1cc(Nc2ccnc3cc(Cl)ccc23)c2c(c1O)CCCC2 [Naphtoquine, Naphthoquine, reference compound]	1.3	–	early rings; also recorded: ring stages	–	0.0195	–	0.0292	0.0428	–	0.0032	–	0.0042	0.0081
Ferroquine [reference compound]	1.4	–	early rings; also recorded: ring stages	–	0.0232	–	0.0368	0.0493	–	0.0035	–	0.0049	0.0109
